This passage reports IC50 results from BindingDB's records for doi:10.1016/0960-894X(95)00215-F (n/a, 1995).

This assay concerns the target Phospholipase A2 group IIA. Description: Concentration required for in vitro inhibitory activity against human type II phospholipase A2.

As a reminder, the IC50 is the concentration that gives 50% inhibition. Read a low IC50 as higher potency. `CCOC(=O)[C@@]1(Cc2ccccc2)S[C@@H](F)C(C)(C)C1=O` gave an IC50 of 4090 nM. In other words, the single-digit micromolar range.
Regarding `CCOC(=O)[C@@]1(Cc2ccccc2)S[C@H](F)C(C)(C)C1=O`, the IC50 came out at 676 nM.
